The values below come from patent publication US10732108B2, “Fluorogenic water soluble hydrazine sensors” (priority 2017, dated 2020).

This data set is described as follows: Hydrazine diffusion into vesicles assay (fluorimetric kinetic hydrazine transmembrane diffusion, SUVs encapsulating compound 2). To be noted: for hydrazine diffusion across a phospholipid membrane, t ½: FIG. 9, membranes of the phosphatidylcholine lipid.

Method: (iii) Hydrazine Diffusion into Vesicles Assay
Example 5: Hydrazine Diffusion Assay Procedure
1.0 mg of phosphatidylcholine lipid in chloroform solution was dispensed into a 20 mL scintillation vial, dried under a stream of Ar, and put under house vacuum in a desiccator overnight. The vial was then removed from the desiccator, purged of air with a stream of Ar, closed, and sealed with Parafilm.
6.0 g of monobasic sodium phosphate was dissolved in 1 L MilliQ water to make a 50 mM solution. The pH of the solution was raised to 7.40 by addition of 5N NaOH (typically 9 mL). Depending on the amount of NaOH added, NaCl was added (typically 10 g) to form a 500 mosM buffer.
Loosely capped Falcon tubes containing 45 ml of buffer or MilliQ water were placed in a desiccator and put under house vacuum overnight. The desiccator was then filled with Ar by first capping the inlet with a rubber septum, then piercing the septum with two Ar-filled balloons with attached needles, then simultaneously closing the desiccator valve to vacuum and opening the desiccator valve to the inlet. The desiccator top was then removed and the Falcon tubes quickly closed and sealed with Parafilm.
425-430 mg of hydrazine hydrochloride was weighed and dispensed into a 25 ml reagent bottle pre-filled with Ar; the bottle was then purged of air with a stream of Ar and closed. 25 ml degassed MilliQ water was added to the bottle, along with 300 μl 5N NaOH, under a stream of Ar. The bottle was closed and shaken vigorously. The pH was then adjusted to 7.40±0.02 with 5N NaOH, purging of air with Ar immediately after each pH measurement with a glass electrode. The bottle was purged of air with a stream of Ar, closed, and sealed with Parafilm.
A suspension of Sepharose® CL-4B in 10-30% ethanol (Sigma) was added to an 8.5-cm size-exclusion column. Methanol was washed out of the column by flushing with at least 5 column volumes of 50 mM phosphate buffer (described above, section B). Then the column was capped with a rubber septum, the septum was pierced with an Ar-filled balloon with attached needle, and the column was run until the meniscus descended to the top of the resin. Then, under a stream of Ar, the head space was filled with degassed buffer (described above, section C) and the Falcon tube containing the degassed buffer was purged of any incidental air with a stream of Ar, then closed. […]
The vesicles were loaded onto the column under a stream of Ar and then degassed phosphate buffer was added to the column under a stream of Ar; the column was subsequently run under Ar. […] Vesicles were not visible by eye or upon exposure to a UV lamp; vesicles were detected by directing the beam from a 5 mW green laser pointer horizontally through the cuvette; upon elution of the vesicles, bright scattering was visible.

As for `CCCCCCCC/C=C\CCCCCCCC(=O)OC[C@H](COP(=O)([O-])OCC[N+](C)(C)C)OC(=O)CCCCCCC/C=C\CCCCCCCC` [18:1 PC (DOPC)], the “hydrazine diffusion across a phospholipid membrane, t ½” value amounted to 0.907 ± 0.0933 h.

As for `CCCCCCCC/C=C\CCCCCCCCCCCC(=O)OC[C@H](COP(=O)([O-])OCC[N+](C)(C)C)OC(=O)CCCCCCCCCCC/C=C\CCCCCCCC` [di22:1 PC (DEPC)], the “hydrazine diffusion across a phospholipid membrane, t ½” value stood at 1.65 ± 0.1 h. Further, for the setting “pH = 6.30, SUVs of the lipid”, the “N2H4 Diff. t1/2 (min) pH = 6.30” value was 583 ± 25 min. Besides, the “N2H4 Diff. t1/2 (min) pH = 7.40” value (pH = 7.40, SUVs of the lipid) is given as 98.9 ± 6.0 min.
